The source of these data is ChEMBL document CHEMBL1157104 (J Med Chem, 2010).

pKd: −log10 of the molar value.

In experiment [1] the target is T1, Progesterone receptor (Homo sapiens) (UniProt P06401).
T1 sequence (whole entry): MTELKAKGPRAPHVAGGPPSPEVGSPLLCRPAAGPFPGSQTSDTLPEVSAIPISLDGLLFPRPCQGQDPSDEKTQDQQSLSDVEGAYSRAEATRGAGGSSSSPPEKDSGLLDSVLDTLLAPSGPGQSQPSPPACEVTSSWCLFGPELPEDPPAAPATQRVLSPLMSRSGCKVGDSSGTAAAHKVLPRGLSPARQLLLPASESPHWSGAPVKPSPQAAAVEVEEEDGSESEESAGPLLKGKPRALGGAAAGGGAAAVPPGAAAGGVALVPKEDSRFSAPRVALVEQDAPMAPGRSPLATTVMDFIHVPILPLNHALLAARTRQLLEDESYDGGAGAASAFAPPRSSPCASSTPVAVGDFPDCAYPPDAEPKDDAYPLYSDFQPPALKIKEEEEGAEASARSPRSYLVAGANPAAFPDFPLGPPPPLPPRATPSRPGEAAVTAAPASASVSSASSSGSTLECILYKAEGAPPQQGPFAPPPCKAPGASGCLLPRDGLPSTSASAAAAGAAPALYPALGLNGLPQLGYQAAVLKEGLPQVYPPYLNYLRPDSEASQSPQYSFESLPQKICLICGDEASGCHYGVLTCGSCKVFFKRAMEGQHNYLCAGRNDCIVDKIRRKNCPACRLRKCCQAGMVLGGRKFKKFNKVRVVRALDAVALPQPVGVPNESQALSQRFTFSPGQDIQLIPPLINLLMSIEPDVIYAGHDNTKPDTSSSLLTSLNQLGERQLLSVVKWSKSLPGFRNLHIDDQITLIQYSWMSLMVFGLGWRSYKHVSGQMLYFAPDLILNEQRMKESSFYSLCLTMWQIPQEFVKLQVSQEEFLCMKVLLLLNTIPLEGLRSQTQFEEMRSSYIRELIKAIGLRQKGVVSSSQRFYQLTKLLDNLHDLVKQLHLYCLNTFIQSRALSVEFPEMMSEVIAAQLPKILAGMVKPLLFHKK
In words: Binding affinity to progesterone receptor relative to R5020.

The target of the next experiment is T2, Progesterone receptor (Homo sapiens, UniProt P06401).
T2 sequence (P06401 whole entry): T1 sequence (whole entry)
In words: Binding affinity to progesterone receptor.

As for `CC1(C)OC(=S)Nc2ccc(-c3ccc(C#N)n3CCCF)cc21`, the relative binding affinity (RBA) in experiment [1] was 0.99.
For `CCC(=O)[C@@]1(C)CC[C@H]2[C@@H]3CCC4=CC(=O)CCC4=C3CC[C@@]21C` [PROMEGESTONE], the pKd (as a rule, the Kd on a negative log10 scale, so that one unit is a factor of ten) at Progesterone receptor is 9.40.
As to `CC1(C)OC(=S)Nc2ccc(-c3ccc(C#N)n3CCF)cc21`, the relative binding affinity (RBA) in experiment [1] is 18.5.
